This note sets out measurements from ChEMBL document CHEMBL1140429, “Conversion of the potent delta-opioid agonist H-Dmt-Tic-NH-CH(2)-bid into delta-opioid antagonists by N(1)-benzimidazole alkylation(1)” (J Med Chem, 2005).

Usually Ki stands for a measure of affinity in units of concentration, obtained from inhibition or displacement. What is called IC50 is the midpoint of a concentration-inhibition curve. High values mean weaker potency, low ones greater potency.

Experiment [1] concerns the target Mu-type opioid receptor (Rattus norvegicus, UniProt P33535). Kind of experiment: Displacement of [3H]DAMGO from rat mu opioid receptor in brain P2 synaptosomes. It counts as subcellular. (Displacement assays read how much labelled ligand stays bound in the presence of the test substance.)
In experiment [2] the target is Delta-type opioid receptor (Mus musculus, UniProt P32300). The experiment in a line: Functional bioactivity against delta opioid receptor in mouse vas deferens. It counts as tissue-based. The settings on record: for Kb: read-out: pA2 (converted).
The target of experiment [3] is Mu-type opioid receptor (Cavia porcellus, UniProt P97266). The experiment in a line: Functional bioactivity against mu opioid receptor in guinea-pig ileum. It counts as tissue-based.
For experiment [4], the target named is Delta-type opioid receptor (Rattus norvegicus, UniProt P33533). The experiment in a line: Displacement of [3H]deltorphin II from rat delta opioid receptor in brain P2 synaptosomes. It counts as subcellular.
Delta-type opioid receptor (Rattus norvegicus, UniProt P33533), sequence (P33533 whole entry): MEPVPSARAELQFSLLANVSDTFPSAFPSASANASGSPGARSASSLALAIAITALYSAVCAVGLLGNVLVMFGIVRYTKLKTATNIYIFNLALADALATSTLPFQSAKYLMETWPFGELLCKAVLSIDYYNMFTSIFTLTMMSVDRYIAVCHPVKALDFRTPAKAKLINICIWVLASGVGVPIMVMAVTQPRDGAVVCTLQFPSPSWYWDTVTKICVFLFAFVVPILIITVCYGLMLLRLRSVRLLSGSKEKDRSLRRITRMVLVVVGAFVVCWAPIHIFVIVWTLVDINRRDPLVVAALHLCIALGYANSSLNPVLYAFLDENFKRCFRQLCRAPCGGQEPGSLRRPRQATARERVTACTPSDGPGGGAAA

Delta-type opioid receptor (Mus musculus, UniProt P32300), sequence (P32300 whole entry): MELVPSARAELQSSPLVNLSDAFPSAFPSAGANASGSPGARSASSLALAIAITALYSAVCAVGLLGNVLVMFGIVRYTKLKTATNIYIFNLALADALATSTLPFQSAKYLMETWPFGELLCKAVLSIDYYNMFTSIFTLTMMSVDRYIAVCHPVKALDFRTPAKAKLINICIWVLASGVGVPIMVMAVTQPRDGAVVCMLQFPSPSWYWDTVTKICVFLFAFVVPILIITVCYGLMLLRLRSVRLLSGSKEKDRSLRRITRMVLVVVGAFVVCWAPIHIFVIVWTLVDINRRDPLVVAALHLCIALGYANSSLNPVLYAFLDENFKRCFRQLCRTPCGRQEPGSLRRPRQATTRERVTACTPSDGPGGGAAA
Mu-type opioid receptor (Cavia porcellus, UniProt P97266), sequence (P97266 whole entry): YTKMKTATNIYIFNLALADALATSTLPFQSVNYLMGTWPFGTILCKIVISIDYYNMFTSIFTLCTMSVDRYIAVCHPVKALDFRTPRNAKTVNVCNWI
Mu-type opioid receptor (Rattus norvegicus, UniProt P33535), sequence (P33535 whole entry): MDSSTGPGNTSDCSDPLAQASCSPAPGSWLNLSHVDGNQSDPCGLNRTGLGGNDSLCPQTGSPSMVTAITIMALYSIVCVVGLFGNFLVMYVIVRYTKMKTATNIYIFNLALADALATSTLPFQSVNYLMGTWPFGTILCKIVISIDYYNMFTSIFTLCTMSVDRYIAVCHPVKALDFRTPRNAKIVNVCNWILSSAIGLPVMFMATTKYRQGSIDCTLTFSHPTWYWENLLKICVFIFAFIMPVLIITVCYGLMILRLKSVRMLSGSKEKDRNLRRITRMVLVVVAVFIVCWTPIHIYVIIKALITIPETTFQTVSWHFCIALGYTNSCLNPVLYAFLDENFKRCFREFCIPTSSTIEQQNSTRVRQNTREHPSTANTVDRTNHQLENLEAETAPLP

`Cc1cc(O)cc(C)c1C[C@H](N)C(=O)N1Cc2ccccc2C[C@H]1C(=O)NCc1nc2ccccc2n1CC1CC1`: the values for the Ki (at Mu-type opioid receptor [1]; in experiment [4]) were 0.52 nM and 0.36 nM, respectively. Moreover, the values for the IC50 result (in experiment [2]; against Mu-type opioid receptor [3]) were “Not Active” and 64 nM, respectively. The Kb in experiment [2] is 0.339 nM.
On the same counts, the results for `CCOC(=O)Cn1c(CNC(=O)[C@@H]2Cc3ccccc3CN2C(=O)[C@@H](N)Cc2c(C)cc(O)cc2C)nc2ccccc21` are 1.42 nM, 0.12 nM, “Not Active”, 30 nM and 0.17 nM.
For the molecule `C=CCn1c(CNC(=O)[C@@H]2Cc3ccccc3CN2C(=O)[C@@H](N)Cc2c(C)cc(O)cc2C)nc2ccccc21`, the Ki at Mu-type opioid receptor [1] worked out at 0.44 nM; in experiment [4], 0.13 nM. The results for the IC50 result (in experiment [2]; against Mu-type opioid receptor [3]) were “Not Active” and 72 nM, respectively. The Kb in experiment [2] was 0.457 nM.
Turning to `Cc1cc(O)cc(C)c1C[C@H](N)C(=O)N1Cc2ccccc2C[C@H]1C(=O)NCc1nc2ccccc2n1CC(=O)O`, the Ki on Mu-type opioid receptor [1] is 6.92 nM; in experiment [4] it was 0.021 nM. In addition, the half-maximal inhibitory concentration (IC50) result in experiment [2] is “Not Active”; at Mu-type opioid receptor [3], 3190 nM. Further, in experiment [2], the Kb is 0.269 nM.
Take `Cc1cc(O)cc(C)c1C[C@H](N)C(=O)N1Cc2ccccc2C[C@H]1C(=O)NCc1nc2ccccc2n1C`: the inhibition constant (Ki) at Mu-type opioid receptor [1] is 0.83 nM; in experiment [4] it was 0.16 nM. The IC50 result was “Not Active” in experiment [2] and 450 nM against Mu-type opioid receptor [3]. The Kb in experiment [2] is 0.0724 nM.
On the same counts, the results for `Cc1cc(O)cc(C)c1C[C@H](N)C(=O)N1Cc2ccccc2C[C@H]1C(=O)NCc1nc2ccccc2n1Cc1ccccc1` are 1.02 nM, 0.2 nM, “Not Active”, 245 nM and 3.02 nM.
The molecule `CC(C)[C@H](NC(=O)[C@H](CC(=O)O)NC(=O)[C@H](Cc1ccccc1)NC(=O)[C@@H](C)NC(=O)[C@@H](N)Cc1ccc(O)cc1)C(=O)N[C@H](C(=O)NCC(N)=O)C(C)C` [DELTORPHIN C] displayed an IC50 against Mu-type opioid receptor [3] of 1300 nM.
The molecule `C[C@@H](NC(=O)[C@@H](N)Cc1ccc(O)cc1)C(=O)N[C@@H](Cc1ccccc1)C(=O)NCC(=O)N[C@@H](Cc1ccc(O)cc1)C(=O)N1CCC[C@H]1C(=O)N[C@@H](CO)C(N)=O` [DERMORPHIN] yielded an IC50 on Mu-type opioid receptor [3] of 1.9 nM.
